Common to all, as to assay: inhibition of tumour cell growth, NCI panel, 48 h
The test system of assay [1] is UACC-257 melanoma.
Assay [2] relates to SK-MEL-2 melanoma.
The test system of assay [3] is HOP-92 NSCLC.
Assay [4] has as its system HCT-15 colon.
In assay [5] the test system is SF-295 CNS.
The subject of assay [6] is NCI-H522 lung.
The test system of assay [7] is NCI-H23 lung.
Assay [8] has as its system SNB-19 CNS.
Assay [9] deals with SK-MEL-5 melanoma.
For assay [10], the system named is UACC-62 melanoma.

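Briefly, cells in 96-well plates were exposed to five compound concentrations for 48 h, and endpoints were estimated by linear interpolation. The concentration for 50% growth inhibition is given as GI50. TGI: concentration producing complete growth inhibition.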

For the molecule `COc1cc(C2c3cc4c(cc3[C@@H](Nc3cnc5ccccc5c3)C3COC(=O)[C@H]23)OCO4)cc(OC)c1O` (stereo partly drawn), the TGI turned out to be 6.64 µM in assay [1]; 3.58 µM in assay [2]; 2.81 µM in assay [3]; 1.31 µM in assay [4]; 1.14 µM in [5]; 3.19 µM in assay [6]. The TGI worked out at 2.02 µM in assay [7], 9.53 µM in [8], 1.78 µM in [9] and 2.06 µM in assay [10].

In the case of `O=C1Sc2sc(=S)sc2SC1c1ccccc1` (stereo not drawn), the TGI in assay [1] is more than 100 µM; in assay [2], more than 100 µM; in assay [3], more than 82.4 µM; in assay [4], 36.8 µM; in assay [5] it was more than 100 µM; in assay [6], 19.5 µM. The TGI in assay [7] was more than 100 µM; in assay [8] it was more than 100 µM; in assay [9] it was more than 100 µM; in assay [10], 57.2 µM.

In the case of `C=CCn1c(C)nc2cc(Nc3nc(N4CCCC4)nc4nc[nH]c34)ccc21`, the GI50 in assay [1], in [2], in assay [3], in assay [4], in assay [5] and in assay [6] was more than 100 µM in each case. In addition, the GI50 in assay [7], in assay [8], in assay [9] and in assay [10] was more than 100 µM throughout. In addition, the TGI in assay [1], in assay [2], in assay [3], in assay [4], in assay [5] and in [6] was more than 100 µM throughout. Besides, the TGI in [7], in assay [8], in assay [9] and in [10] was more than 100 µM in each case.

Regarding `C=C1C(=O)OC2/C=C(CO)/C=C\C3OC3(C)CC(OC(=O)/C(C)=C/COC(C)=O)C12` (stereo not drawn), the TGI in [1] is 6.59 µM; in assay [2], 7.88 µM; in assay [3], 5.94 µM; in assay [4], 4.27 µM; in assay [5] it was 28.3 µM; in assay [6], 1.81 µM. Also, the TGI in [7] came to 8.53 µM; in assay [8] it was 25.1 µM; in assay [9], 15.9 µM; in [10], 4.96 µM.

For `Nc1nc2cc(COc3ccc(C(=O)O)cc3)ccc2nc1-c1ccccc1`, the TGI in [1], in assay [2], in [3], in assay [4], in assay [5] and in [6] was more than 10 µM in each case. The TGI in assay [7], in assay [8], in assay [9] and in [10] was more than 10 µM throughout.

Turning to `Cc1c2cnccc2c(C)c2c1c1ccccc1n2CCCCCCCl`, the TGI in assay [1], in assay [2], in [3], in [4], in [5] and in assay [6] was more than 50 µM in each case. The TGI in [7], in assay [8], in [9] and in assay [10] was more than 50 µM in each case.

As to `C=C1C(=O)OC2/C=C(\CO)C3OC3C3OC3(C)CC(OC(=O)/C(=C/C)COC(C)=O)C12` (stereo not drawn), the TGI in assay [1] came out at 12.6 µM; in assay [2], 6.78 µM; in assay [3], 4.35 µM; in assay [4] it was 6.47 µM; in assay [5] it was 46.7 µM; in assay [6], 1.2 µM. For the same molecule, the TGI was found to be 21.7 µM in [7], 28.6 µM in assay [8], 20.1 µM in assay [9] and 6.2 µM in assay [10].

As to `O=C(N/N=C/c1cc(Cl)cc(Cl)c1[O-])c1ccccc1O.O=C(N/N=C/c1cc(Cl)cc(Cl)c1[O-])c1ccccc1O.[Mn+2]`, the TGI came to 11.9 µM in [1]; 11.3 µM in assay [2]; 3.33 µM in assay [3]; 14.1 µM in assay [4]; 11.8 µM in [5]; 0.737 µM in assay [6]. Further, the TGI in assay [7] came out at 6.31 µM; in assay [8] it was 16.1 µM; in [9], 2.63 µM; in assay [10], 0.804 µM. In addition, the GI50 in assay [2] is 0.285 µM; in assay [3], 0.429 µM; in [7], 0.301 µM.

In the case of `CS(C)(=O)=Nn1c(=O)n2n(c1=O)[C@H]1CC[C@@H]2C1`, the TGI in assay [1], in assay [2], in [3], in assay [4], in assay [5] and in assay [6] was more than 100 µM in each case. Moreover, the TGI in [7], in assay [8], in assay [9] and in assay [10] was more than 100 µM in each case.

On to `CSc1nc2c(ncn2C2OC(CO)C(O)C(O)C2O)c(=O)n1C` (stereo not drawn), for which the TGI in [1], in assay [2], in assay [3], in assay [4], in [5] and in assay [6] was more than 100 µM each time. In addition, the TGI in [7], in [8], in assay [9] and in assay [10] was more than 100 µM throughout.

Consider `O=C(O)C(C1NCCS1)N1C(=O)c2ccccc2C1=O` (stereo not drawn), for which the TGI in assay [1], in assay [2], in assay [3], in [4], in assay [5] and in assay [6] was more than 100 µM each time. Besides, the TGI in assay [7], in assay [8], in assay [9] and in assay [10] was more than 100 µM each time.

For the molecule `COc1ccc2[nH]c(=O)cc(C)c2c1[N+](=O)[O-]`, the TGI in [1], in [2], in assay [3], in assay [4], in [5] and in [6] was more than 100 µM each time. Further, the TGI in assay [7], in assay [8], in assay [9] and in assay [10] was more than 100 µM in each case.

These data come from PubChem BioAssay (NCI).
